# Where “and” joins values, the source holds several entries; their conditions need not be identical. Equal values may be shown once.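 Protocol summary: plate cells (96-well), add compound at 5 concentrations, incubate 48 h, interpolate endpoints linearly. GI50 = concentration required for 50% inhibition of growth. At the TGI there is no net growth.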
# Experiments:
# Assay in all cases: DTP human tumour cell line panel, 48 h
# OVCAR-4 ovarian = system: OVCAR-4 ovarian
# A549 NSCLC = system: A549 NSCLC
# HS 578T breast = system: HS 578T breast
# HT29 colon = system: HT29 colon
# OVCAR-5 ovarian = system: OVCAR-5 ovarian
# SK-MEL-5 melanoma = system: SK-MEL-5 melanoma
# BT-549 breast = system: BT-549 breast
# SK-OV-3 ovarian = system: SK-OV-3 ovarian
# SNB-19 CNS = system: SNB-19 CNS
# NCI-H460 lung = system: NCI-H460 lung
Compound,TGI (OVCAR-4 ovarian),TGI (A549 NSCLC),TGI (HS 578T breast),TGI (HT29 colon),TGI (OVCAR-5 ovarian),TGI (SK-MEL-5 melanoma),TGI (BT-549 breast),TGI (SK-OV-3 ovarian),TGI (SNB-19 CNS),TGI (NCI-H460 lung),GI50 (OVCAR-4 ovarian),GI50 (A549 NSCLC),GI50 (HS 578T breast),GI50 (HT29 colon),GI50 (OVCAR-5 ovarian),GI50 (SK-MEL-5 melanoma),GI50 (BT-549 breast),GI50 (SK-OV-3 ovarian),GI50 (SNB-19 CNS),GI50 (NCI-H460 lung)
CC(C)(C)OC(=O)NCC(CNC(=O)OC(C)(C)C)C(N)=O,> 100 µM,> 100 µM,> 100 µM,> 100 µM,> 100 µM,> 100 µM,> 100 µM,> 100 µM,> 100 µM,> 100 µM,–,–,–,–,–,–,–,–,–,–
COc1nc(N)nc2c1ncn2C1CC(O)C(CO)O1 (stereo not given),> 100 µM,> 100 µM,> 100 µM,> 100 µM,> 100 µM,> 100 µM,> 100 µM,> 100 µM,> 100 µM,> 100 µM,–,–,–,–,–,–,–,–,–,–
Cc1cc2c(F)c(Oc3ncnc(Nc4ccc(N5C[C@@H](C)N[C@@H](C)C5)cc4)c3C#N)cc(F)c2[nH]1,6.04 µM,8.02 µM,5.4 µM,2.49 µM,8.68 µM,3.13 µM,2.38 µM,13.7 µM,18.8 µM,4.37 µM,1.22 µM,2.84 µM,1.77 µM,0.583 µM,2.8 µM,1.71 µM,0.816 µM,3.91 µM,5.07 µM,2.06 µM
Cc1ccc(OCC2CO2)c(Br)c1 (stereo not given),29.4 µM,62.2 µM,> 100 µM,29.1 µM,34.6 µM,60.5 µM,0.879 µM,58.5 µM,> 100 µM,66 µM,–,–,–,–,–,–,–,–,–,–
COc1cc(-c2nn(-c3cccc(NC(=O)Nc4ccc(Cl)c(C(F)(F)F)c4)c3)cc2-c2ccncc2)ccc1Cl,25.6 µM,16.7 µM,18.3 µM,4.45 µM,11 µM,2.89 µM,10.2 µM,13 µM,9.24 µM,4.79 µM,1.29 µM,1.02 µM,1.32 µM,1.19 µM,3.09 µM,0.818 µM,2.36 µM,1.45 µM,1.24 µM,1.11 µM
O=C1C2CCN(CC2)C1CN1CCOCC1 (stereo not given),10.7 µM,37.5 µM,82.1 µM,16.9 µM,13.5 µM,31 µM,4.53 µM,31.7 µM,32.6 µM,33.7 µM,–,–,–,–,–,–,–,–,–,–
C[C@@H]1C[C@H](N)C[C@H](c2ccncc2NC(=O)c2ccc(F)c(-c3c(F)cccc3F)n2)C1,22 µM and > 10 µM,31.6 µM and > 10 µM,49 µM and > 10 µM,18.7 µM and > 10 µM,25.9 µM and > 10 µM,26.2 µM and 5.01 µM,22.6 µM and > 10 µM,26.8 µM and > 10 µM,30.3 µM and > 10 µM,28.7 µM and > 10 µM,9.39 µM and > 10 µM,15.9 µM and > 10 µM,13.4 µM and > 10 µM,4.17 µM and 5.55 µM,12.3 µM and > 10 µM,13 µM and 1.58 µM,10.3 µM and 5.17 µM,12.7 µM and > 10 µM,15.6 µM and > 10 µM,13.7 µM and > 10 µM
O=C(O)Cc1cccc2c(=O)cc(-c3ccccc3)oc12,250 µM and > 1000 µM,250 µM and > 1000 µM,209 µM and 889 µM,> 1000 µM,250 µM and > 1000 µM,250 µM and > 876 µM,250 µM and > 1000 µM,250 µM and > 1000 µM,> 1000 µM,> 1000 µM,546 µM,728 µM,415 µM,489 µM,> 1000 µM,407 µM,> 1000 µM,> 813 µM,> 909 µM,545 µM
CCC1=C(c2ccc(OC)cc2)C(C)(C)Oc2c1ccc(O)c2CN1CCCC1,29 µM,26.8 µM,35.1 µM,8.94 µM,29.4 µM,2.57 µM,12.7 µM,> 100 µM,56.9 µM,3.59 µM,2.16 µM,3.63 µM,3.44 µM,3.14 µM,4.1 µM,1.3 µM,2.29 µM,8.23 µM,6.69 µM,1.7 µM
O=C1Nc2c(Cl)cc(Cl)cc2/C1=N/N=C/c1ccco1,> 100 µM,> 100 µM,> 100 µM,> 100 µM,> 100 µM,> 100 µM,60.6 µM,> 100 µM,> 100 µM,> 100 µM,–,–,–,–,–,–,–,–,–,–
NCCCCC(NC(=O)C(N)CCCN=C(N)N)C(=O)NC(CCCCN)C(=O)NC(CCCN=C(N)N)C(=O)NC(CCCN=C(N)N)C(=O)NC(CCC(N)=O)C(=O)NC(CCCN=C(N)N)C(=O)NC(CCCN=C(N)N)C(=O)NC(CCCN=C(N)N)C(=O)NCC(=O)NCC(=O)O (stereo not given),> 50 µM,> 50 µM,> 50 µM,> 50 µM,> 50 µM,> 50 µM,> 50 µM,> 50 µM,> 50 µM,> 50 µM,> 50 µM,> 50 µM,> 50 µM,> 50 µM,> 50 µM,> 50 µM,> 50 µM,> 50 µM,> 50 µM,> 50 µM
CCOC(=O)c1[nH]c2cc(Cl)ccc2c1[C@@H](C(=O)NC(C)(C)C)N(CC)C(=O)CCCCC#Cc1cccc2c1CN(C1CCC(=O)NC1=O)C2=O (stereo not given in full),23.5 µM,> 89.4 µM,6.66 µM,> 100 µM,40.2 µM,2.56 µM,4.81 µM,16.9 µM,34.5 µM,> 54.3 µM,< 0.01 µM,1.3 µM,< 0.01 µM,2.13 µM,2.08 µM,1.22 µM,< 0.0197 µM,0.694 µM,0.0731 µM,3.11 µM
COc1cc2nc(Nc3cccc(Cl)c3)nc(N)c2cc1OC,26.3 µM,27.3 µM,31.6 µM,12.4 µM,35.4 µM,11.2 µM,27.8 µM,32.7 µM,28 µM,15.5 µM,10.7 µM,9.89 µM,6.05 µM,3.23 µM,17.2 µM,3.27 µM,13.5 µM,18.1 µM,14.6 µM,4.09 µM
COc1ccc(Br)cc1NC(=O)Nc1cccc2c1ccn2Cc1ccnc(N)c1,> 47.8 µM,22.7 µM and > 10 µM,16.2 µM and > 10 µM,8.09 µM and > 10 µM,58.4 µM and > 10 µM,23 µM and > 10 µM,38.6 µM and > 10 µM,26.3 µM and > 10 µM,> 85.7 µM,15.1 µM and > 10 µM,3.85 µM and 5.52 µM,5.64 µM and > 10 µM,1.84 µM and 3.81 µM,2.59 µM and 2.24 µM,12.7 µM and > 10 µM,10.2 µM and 5.28 µM,11.7 µM and > 10 µM,8.38 µM and > 10 µM,13.6 µM and > 10 µM,3.85 µM and 4.2 µM

# Reference: PubChem BioAssay (NCI)
